Assay results from patent publication US7307166B1, “Oxpurine nucleosides and their congeners, and acyl, derivatives thereof, for improvement of hematopoiesis” (Wellstat Therapeutics Corporation, priority 1987, dated 2007).

How the values were obtained:
[1] = tested on: mouse bone marrow cells in culture; details: under stimulatory influence of serum from endotoxin-treated mice; cited from earlier work
Balb/C female mice [2] = assay: Hematopoietic recovery after cyclophosphamide in mice (spleen weight, blood cell counts); format: in vivo, mouse; details: for Neutrophils / peripheral total white blood cells: Ex 37: day 7 after CP, 5 μmoles/mouse/day i.p. 6 days
Protocol: Twenty-four hours later and each day thereafter for a total of 6 days, mice were given a 0.4 ml i.p. injection of either physiological saline (controls), guanine (5 μmoles/mouse/day), or guanosine (5 μmoles/mouse/day). On day 7 all 10 mice in each of the three groups were bled, and then sacrificed by cervical dislocation. Spleens were removed and weighed, and complete blood cell counts performed.
Twenty-four hours later and each day thereafter for a total of 6 days, mice were given a 0.4 ml i.p injection of either physiological saline (controls), Tween 80 (0.2%), guanosine (5 μmoles/mouse/day in 0.2% Tween 80), or 2.5 μmoles per mouse per day of one of the following acylated derivatives of guanosine in 0.2% Tween 80: triacetylguanosine, octanoylguanosine, lauroylguanosine, or palmitoylguanosine. On day 7 following CP administration all 10 animals from each of the 7 groups were bled, and then sacrificed by cervical dislocation. Spleens were removed and weighed, and complete blood counts performed.
Twenty-four hours later treatment was begun. Mice were given a 0.4 ml i.p. injection of either physiological saline (controls), Tween 80 (0.2%), or palmitoylguanosine (5 μmoles/mouse/day in 0.2% Tween 80). The timing of the treatments was varied within the groups. The control group was given saline on days 1-6. The mice receiving Tween 80 were treated either on days 1-4, 4-6 or 1-6. Palmitoylguanosine-treated mice were treated either on days 1-2, 1-4, 3-5, 4-6 or 1-6. If a group of mice received no Tween 80 or palmitoylguanosine on a given day, saline was administered by i.p. injection. Thus, there were 9 groups of 9 animals in all. On day 7 following CP administration all of the animals were bled and then sacrificed by cervical dislocation. Spleens were removed and weighed, and complete blood cell counts performed.
Twenty-four hours later and each day thereafter for a total of 6 days, mice were given a 0.4 ml i.p. injection of either physiological saline (controls), Tween 80 (0.5%), or one of three different doses of octanoylguanosine (0.5, 2.5, or 5 μmoles/mouse/day in 0.5% Tween 80). On day 7 following CP administration all 9 animals from each of the […] were bled and then sacrificed by cervical dislocation. Spleens were removed and weighed, and complete blood cell counts performed.
Twenty-four hours later and each day thereafter for a total of 6 days, mice were given a 0.4 ml i.p. injection of either physiological saline (controls), Tween 80 (0.5%), or octanoylguanosine (5.0 μmoles/mouse/day in 0.5% Tween 80). On day 7 following CP administration all 10 animals from each of the 3 groups were bled and then sacrificed by cervical dislocation. Spleens were removed, weighed, and fixed in 10% formalin for later histological examination. Complete blood cell counts were performed on the collected blood.
Twenty-four hours later and each day thereafter for a total of 6 days, mice were given a 0.4 ml i.p. injection of either physiological saline (controls), benzoylguanosine (2.5 μmoles/mouse/day in 0.2% Tween 80), or palmitoylguanosine (2.5 μmoles/mouse/day in 0.2% Tween 80). On days 7 and 10 following CP administration 8 animals from each of the 3 groups were bled and then were sacrificed by cervical dislocation. Spleens were removed and weighed, and complete blood cell counts performed.
Twenty four hours later and each day thereafter for a total of 4 or 6 days, mice were given a 0.4 ml i.p. injection of either physiological saline (controls), palmitoyldeoxyinosine (2.5 μmoles/mouse), or palmitoyl-xanthosine (2.5 μmoles/mouse). On days 5 and 7 following CP administration 6 of the 12 animals in each of the 3 groups were bled and then sacrificed by cervical dislocation. Spleens were removed and weighed, and complete blood cell counts performed.

Balb/C female mice [3] = assay: as above; format: in vivo, mouse
[4] = tested on: human myeloid leukemia cell line (HL-60); details: incubation of HL-60 cells; cited from earlier work
[5] = tested on: rabbits treated with cyclophosphamide; details: rabbit, in vivo; cited from earlier work
[6] = tested on: bone marrow cells in culture; details: sub-optimal amounts of colony stimulating factors; cited from earlier work
[7] = Ex 37: day 7 after CP 275 mg/kg i.p., 5 μmoles/mouse/day i.p. 6 days, vs saline
[8] = Ex 38: day 7 after CP, guanosine 5, acyl derivatives 2.5 μmoles/mouse/day in 0.2% Tween 80 i.p. 6 days, Tween 80 0.2%

Nc1nc2c(ncn2[C@@H]2O[C@H](COP(=O)(O)O)[C@@H](O)[C@H]2O)c(=O)[nH]1 [5′-guanosine monophosphate]
number of colonies formed [1]: inactive

Nc1nc2c(ncn2[C@@H]2O[C@@H]3COP(=O)(O)O[C@H]3[C@H]2O)c(=O)[nH]1 [cGMP, 3′,5′-cyclic guanosine monophosphate]
number of colonies formed [1]: increase

Nc1nc2nc[nH]c2c(=O)[nH]1 [guanine]
Neutrophils (Balb/C female mice [2]; vs saline): significantly more
peripheral total white blood cells (Balb/C female mice [2]; vs saline): significantly more
spleen weight (Balb/C female mice [3]; [7]): significantly heavier spleens
induced maturation into functional neutrophils [4]: prevented

Nc1nc2c(ncn2[C@@H]2O[C@H](CO)[C@@H](O)[C@H]2O)c(=O)[nH]1 [guanosine]
Neutrophils (Balb/C female mice [2]; vs saline): significantly more
peripheral total white blood cells (Balb/C female mice [2]; vs saline): significantly more
spleen weight (Balb/C female mice [2]; [8]): No significant difference
spleen weight (Balb/C female mice [3]; [7]): significantly heavier spleens
induced maturation into functional neutrophils [4]: prevented

polyadenosine monophosphate
leukocyte formation [5]: failed to stimulate

polyguanosine monophosphate
leukocyte formation [5]: failed to stimulate

polyoxyethylene sorbitan mono-oleate [Tween 80]
spleen weight (Balb/C female mice [2]; [8]): No significant difference
lymphocyte counts (Balb/C female mice [2]; Ex 41: day 7 after CP, Tween 80 0.2% for any period): not affected
spleen weight (Balb/C female mice [2]; Ex 41: day 7 after CP, Tween 80 0.2% on days 4-6 or 1-6 (not days 1-4), vs saline): elevated
mean spleen weight (Balb/C female mice [2]; Ex 45: day 7 after CP, Tween 80 0.5%): some increase
spleen weight (Balb/C female mice [3]; Ex 46: day 7 after CP, Tween 80 0.5% alone vs saline): modest increase
neutrophil counts (Balb/C female mice [3]; Ex 58: day 7 after CP, 1.0% Tween alone i.p. 6 days, vs saline): significantly different from controls
concentration of maximum activity [6]: 10 ng/mL
